Consider 18 compounds from US20250145589A1, “PYRIDINE DERIVATIVE AND USE THEREOF” (SICHUAN HUIYU PHARMACEUTICAL CO., LTD., priority 2021, published 2025).

pIC50: −log10 of the molar value. Read-outs that look alike come from different tables or passages of the source.

The target in one experiment is PI3Kα (Homo sapiens (Human), UniProt P42336). The experiment is described as follows: Inhibition of PI3Kα efficacy assay (ADP-Glo kinase assay). Type of experiment: biochemical. The following applies: read-out: PI3Kα inhibitory activity (IC50). The procedure: Inhibition of PI3Kα Efficacy assay The ADP-Glo™ kinase assay was used to assess the inhibition of PI3Kα with our compounds. The utilized proteins and assay reagents were obtained from the ADP-Glo™ Kinase Assay Kit (Promega). Initially, a 2 mM stock solution of the test compound (dissolved in DMSO) was serially diluted in five-fold concentrations using DMSO to obtain eight working solutions 1 (200′). […] Subsequently, 2 μL of 2.5×PI and ATP solution mixture were added to each well, mixed, and incubated at RT for 60 minutes. Then, 5 μL of ADP-Glo (containing 10 mM MgCl2) reagent was added to each well, mixed, and incubated at RT for 40 minutes. Finally, 10 μL of the Kinase Detection Reagent was added to each well, mixed, and incubated at RT for 40 minutes. […] Data were analyzed using GraphPad Prism with log(inhibitor) vs. response—Variable Slope(four parameters) fitting calculations for […]. (Note: The negative control refers to the group without inhibitor, and the blank control refers to the group without enzyme.) The data were presented in Tables 1 to 4.

Experiment [1] has as its system NCI-H358 cells (KRAS G12C mutant). The experiment is described as follows: NCI-H358 cell proliferation inhibition (CellTiter-Glo). Type of experiment: cell-based. The note with it: Homo sapiens, NCI-H358, 72 h; H358 cells (G12C mutation), 3 days, Table 6; read-out: NCI-H358 (IC50). Here is the method:
The CellTiter-Glo®, assay was used to detect the number of viable cells, in order to evaluate the anti-proliferation efficacy of compounds. […] The compounds were serially diluted 5-fold in DMSO to obtain 8 concentrations, and then further diluted with RPMI-640 (10% FBS) cell culture medium to obtain the working solutions (5′), 20 μL of each working solution was added to the cell culture supernatant in each well, and the plate was further incubated for 3 days at 37° C. with 5% CO2. The plate was then equilibrated with CellTiter-Glo® reagent at room temperature (25° C.) for 10-30 minutes. After aspirating 50 μL of the medium, 50 μL of CellTiter-Glo® reagent was added. The cells were thoroughly mixed with the CellTiter-Glo® reagent using a microplate shaker for 2 minutes, and then incubated at room temperature for 10 minutes. The 96-well plate was placed in a multi-mode microplate reader to record the luminescence values (RLU). The inhibition rate was calculated through the following equation: [formula] Data were analyzed using GraphPad Prism for IC50 values (Note: The negative control refers to the group without inhibitor).
(In general: ATP-based viability assays read luminescence as a measure of living cells.)

Chain of PI3Kα (P42336 whole entry): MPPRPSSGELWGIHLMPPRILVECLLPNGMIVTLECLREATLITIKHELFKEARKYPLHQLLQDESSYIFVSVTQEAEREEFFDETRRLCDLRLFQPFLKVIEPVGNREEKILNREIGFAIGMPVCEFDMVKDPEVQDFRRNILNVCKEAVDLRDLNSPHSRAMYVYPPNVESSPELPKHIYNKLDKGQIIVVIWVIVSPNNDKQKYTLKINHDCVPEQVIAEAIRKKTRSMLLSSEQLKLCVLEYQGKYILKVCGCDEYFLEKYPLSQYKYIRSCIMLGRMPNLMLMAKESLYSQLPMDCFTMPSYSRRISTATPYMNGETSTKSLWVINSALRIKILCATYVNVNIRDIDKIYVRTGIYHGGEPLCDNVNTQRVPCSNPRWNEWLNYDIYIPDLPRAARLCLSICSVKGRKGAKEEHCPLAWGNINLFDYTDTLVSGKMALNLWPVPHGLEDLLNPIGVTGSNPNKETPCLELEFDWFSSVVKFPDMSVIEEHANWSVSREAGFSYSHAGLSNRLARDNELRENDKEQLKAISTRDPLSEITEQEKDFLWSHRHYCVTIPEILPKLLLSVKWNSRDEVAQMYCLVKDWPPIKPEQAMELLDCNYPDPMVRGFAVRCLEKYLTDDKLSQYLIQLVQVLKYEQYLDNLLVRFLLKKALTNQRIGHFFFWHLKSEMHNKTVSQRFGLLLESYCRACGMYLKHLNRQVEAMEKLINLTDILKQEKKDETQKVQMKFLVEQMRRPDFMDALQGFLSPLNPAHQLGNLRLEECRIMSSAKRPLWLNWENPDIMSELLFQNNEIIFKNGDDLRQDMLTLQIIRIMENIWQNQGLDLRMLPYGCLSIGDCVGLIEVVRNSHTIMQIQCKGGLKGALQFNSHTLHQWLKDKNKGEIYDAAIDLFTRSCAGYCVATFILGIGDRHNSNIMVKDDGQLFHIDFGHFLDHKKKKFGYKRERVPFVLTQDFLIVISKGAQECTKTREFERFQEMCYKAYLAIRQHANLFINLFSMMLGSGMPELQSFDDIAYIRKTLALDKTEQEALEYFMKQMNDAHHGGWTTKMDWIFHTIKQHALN
Chain of PI3Kα (P27986 whole entry partner): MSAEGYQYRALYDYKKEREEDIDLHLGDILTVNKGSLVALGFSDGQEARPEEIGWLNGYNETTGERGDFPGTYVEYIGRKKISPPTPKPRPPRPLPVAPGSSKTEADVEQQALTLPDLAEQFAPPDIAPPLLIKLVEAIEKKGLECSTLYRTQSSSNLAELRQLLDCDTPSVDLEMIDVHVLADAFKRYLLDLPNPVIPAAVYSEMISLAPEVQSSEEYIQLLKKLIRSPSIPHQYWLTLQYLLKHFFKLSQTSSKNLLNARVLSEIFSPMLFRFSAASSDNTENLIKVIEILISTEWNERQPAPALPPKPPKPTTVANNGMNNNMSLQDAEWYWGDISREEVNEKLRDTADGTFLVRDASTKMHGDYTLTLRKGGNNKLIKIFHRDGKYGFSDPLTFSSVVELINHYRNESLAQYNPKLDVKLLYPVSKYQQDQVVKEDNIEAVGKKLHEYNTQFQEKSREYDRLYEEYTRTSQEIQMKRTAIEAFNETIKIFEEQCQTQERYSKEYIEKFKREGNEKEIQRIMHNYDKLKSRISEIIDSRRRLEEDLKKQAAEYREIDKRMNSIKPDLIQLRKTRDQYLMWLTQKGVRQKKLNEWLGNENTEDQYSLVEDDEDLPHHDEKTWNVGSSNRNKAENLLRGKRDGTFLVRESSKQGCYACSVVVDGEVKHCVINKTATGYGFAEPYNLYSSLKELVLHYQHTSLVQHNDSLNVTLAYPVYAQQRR

One may read the pIC50 as the negative decadic logarithm of the IC50, by convention in mol/L. Turning to `C=C(F)C(=O)N1C2CCC1CN(c1ncnc3ccc(-c4cnc(OC)c(NS(=O)(=O)c5c(F)cc(F)cc5F)c4)cc13)C2` [Example 156, 2,4,6-trifluoro-N-(5-(4-(8-(2-fluoroacryloyl)-3,8-diazabicyclo[3.2.1]octan-3-yl)quinazolin-6-yl)-2-methoxypyridin-3-yl)benzenesulfonamide], the negative logarithm of the IC50 (pIC50) was 9.30 on PI3Kα (Table 4) and 7.53 in experiment [1].
Take `C=C(F)C(=O)N1CCN(c2ncnc3ccc(-c4cnc(OC)c(NS(=O)(=O)c5c(F)cc(F)cc5F)c4)cc23)CC1` [Example 98, 2,4,6-trifluoro-N-(5-(4-(4-(2-fluoroacryloyl)piperazin-1-yl)quinazolin-6-yl)-2-methoxypyridin-3-yl)benzenesulfonamide]: the pIC50 at PI3Kα (Table 2) is 8.01; in experiment [1] it was 8.07.
Take `C=C(F)C(=O)N1C2CCC1CN(c1ncnc3ccc(-c4cnc(OC)c(NS(=O)(=O)c5ccc(F)cc5F)c4)cc13)C2` [Example 146, 2,4-difluoro-N-(5-(4-(8-(2-fluoroacryloyl)-3,8-diazabicyclo[3.2.1]octan-3-yl)quinazolin-6-yl)-2-methoxypyridin-3-yl)benzenesulfonamide]: the pIC50 was 8.68 at PI3Kα (Table 4) and 7.09 in experiment [1].
Taken in the same sequence, the figures for `COc1ncc(-c2ccc3ncnc(N4CC5CC(C4)N5C(=O)/C=C/C(C)=O)c3c2)cc1NS(=O)(=O)c1ccc(F)cc1F` [Example 142, (E)-2,4-difluoro-N-(2-methoxy-5-(4-(6-(4-oxopent-2-enoyl)-3,6-diazabicyclo[3.1.1]heptan-3-yl)quinazolin-6-yl)pyridin-3-yl)benzenesulfonamide] were 9.24 and 6.45.
With `COc1ncc(-c2ccc3ncnc(N4CCN(C(=O)/C=C/C(C)=O)C[C@@H]4C)c3c2)cc1NS(=O)(=O)c1c(F)cncc1F` [Example 164, (S,E)-3,5-difluoro-N-(2-methoxy-5-(4-(2-methyl-4-(4-oxopent-2-enoyl)piperazin-1-yl)quinazolin-6-yl)pyridin-3-yl)pyridine-4-sulfonamide], the pIC50 at PI3Kα (Table 4) was 8.55; in experiment [1], 6.81.
For `COC(=O)/C=C/C(=O)N1CCN(c2ncnc3ccc(-c4cnc(OC)c(NS(=O)(=O)c5ccc(F)cc5F)c4)cc23)CC1` [Example 67, methyl (E)-4-(4-(6-(5-((2,4-difluorophenyl)sulfonamido)-6-methoxy-pyridin-3-yl)quinazolin-4-yl)piperazin-1-yl)-4-oxobut-2-enoate], the negative-log IC50 (pIC50) on PI3Kα (Table 2) was 8.01; in experiment [1], 7.62.
For `C=CC(=O)N1C[C@H](C)N(c2ncnc3ccc(-c4cnc(OC)c(NS(=O)(=O)c5c(F)cccc5F)c4)cc23)C[C@H]1C` [Example 53, N-(5-(4-((2S,5R)-4-acryloyl-2,5-dimethylpiperazin-1-yl)quinazolin-6-yl)-2-methoxypyridin-3-yl)-2,6-difluorobenzene-sulfonamide] the same measures were 8.36 and 6.28.
As for `C=C(F)C(=O)N1CCN(c2ncnc3ccc(-c4cnc(Cl)c(NS(=O)(=O)c5c(F)cccc5F)c4)cc23)CC1` [Example 85, N-(2-chloro-5-(4-(4-(2-fluoroacryloyl)piperazin-1-yl)quinazolin-6-yl)pyridin-3-yl)-2,6-difluorobenzenesulfonamide], the values for the pIC50 (on PI3Kα (Table 2); in experiment [1]) were 8.55 and 6.67, respectively.
In the case of `COc1ncc(-c2ccc3ncnc(N4CCC5(CN(C(=O)/C=C/n6ccnn6)C5)C4)c3c2)cc1NS(=O)(=O)c1ccc(F)cc1F` [Example 61, (E)-N-(5-(4-(2-(3-(1H-1,2,3-triazol-1-yl)acryloyl)-2,6-diazaspiro [3.4]octan-6-yl)quinazolin-6-yl)-2-methoxy-pyridin-3-yl)-2,4-difluoro-benzene-sulfonamide], the pIC50 at PI3Kα (Table 2) is 8.28; in experiment [1], 6.53.
For the compound `C=CC(=O)N1CCN(c2ncnc3ccc(-c4cnc(OC)c(NS(=O)(=O)c5c(F)cccc5F)c4)cc23)C[C@@H]1CC#N` [Example 117, (S)-N-(5-(4-(4-acryloyl-3-(cyanomethyl)piperazin-1-yl)quinazolin-6-yl)-2-methoxypyridin-3-yl)-2,6-difluorobenzenesulfonamide], the pIC50 on PI3Kα (Table 2) was 8.82; in experiment [1], 7.43.
As to `COc1ncc(-c2ccc3ncnc(NC4CCN(C(=O)/C=C/C(C)=O)C4)c3c2)cc1NS(=O)(=O)c1ccc(F)cc1F` (stereo not drawn) [Example 148, (E)-2,4-difluoro-N-(2-methoxy-5-(4-((1-(4-oxopent-2-enoyl)pyrrolidin-3-yl)amino)quinazolin-6-yl)pyridin-3-yl)benzenesulfonamide], the negative logarithm of the IC50 (pIC50) on PI3Kα (Table 4) is 8.04; in experiment [1], 6.20.
On to `COc1ncc(-c2ccc3ncnc(N4CCC5(CC4)CN(C(=O)/C=C/C(C)=O)C5)c3c2)cc1NS(=O)(=O)c1c(F)cncc1F` [Example 163, (E)-3,5-difluoro-N-(2-methoxy-5-(4-(2-(4-oxopent-2-enoyl)-2,7-diazaspiro[3.5]nonan-7-yl)quinazolin-6-yl)pyridin-3-yl)pyridine-4-sulfonamide], for which the negative-log IC50 (pIC50) is 9.60 at PI3Kα (Table 4) and 6.72 in experiment [1].
Regarding `C=C(F)C(=O)N1CC2(CCN(c3ncnc4ccc(-c5cnc(OC)c(NS(=O)(=O)c6c(F)cc(F)cc6F)c5)cc34)CC2)C1` [Example 140, 2,4,6-trifluoro-N-(5-(4-(2-(2-fluoroacryloyl)-2,7-diazaspiro[3.5]nonan-7-yl)quinazoline-6-yl)-2-methoxypyridin-3-yl)benzenesulfonamide], the pIC50 was 9.37 at PI3Kα (Table 4) and 8.14 in experiment [1].
Taken in the same sequence, the figures for `COc1ncc(-c2ccc3ncnc(N4CC5CCC(C4)N5C(=O)/C=C/C(C)=O)c3c2)cc1NS(=O)(=O)c1ccc(F)cc1` [Example 149, 4-fluoro-N-(2-methoxy-5-(4-(8-((E)-4-oxopent-2-enoyl)-3,8-diazabicyclo[3.2.1]octan-3-yl)quinazolin-6-yl)pyridin-3-yl)benzenesulfonamide] were 8.48 and 7.04.
`COc1ncc(-c2ccc3ncnc(N4CC5CCC(C4)N5C(=O)/C=C/C(C)=O)c3c2)cc1NS(=O)(=O)c1c(F)cncc1F` [Example 162, 3,5-difluoro-N-(2-methoxy-5-(4-(8-((E)-4-oxopent-2-enoyl)-3,8-diazabicyclo[3.2.1]octan-3-yl)quinazolin-6-yl)pyridin-3-yl)pyridine-4-sulfonamide]: the results for the pIC50 (on PI3Kα (Table 4); in experiment [1]) were 8.62 and 6.85, respectively.
As to `COc1ncc(-c2ccc3ncnc(N4CC5(CN(C(=O)/C=C/C(C)=O)C5)C4)c3c2)cc1NS(=O)(=O)c1ccc(F)cc1F` [Example 141], the results for the pIC50 (at PI3Kα (Table 4); in experiment [1]) were 9.52 and 7.09, respectively.
Take `COc1ncc(-c2ccc3ncnc(N4CCN(C(=O)/C=C/C(C)=O)CC4)c3c2)cc1NS(=O)(=O)Nc1ccc(F)cc1F` [Example 128, N-(2,4-difluorophenyl)[(2-methoxy-5-(4-(4-[(2E)-4-oxopent-2-enoyl]piperazin-1-yl)quinazolin-6-yl)pyridin-3-yl)amino]sulfonamide]: the results for the negative-log IC50 (pIC50) (on PI3Kα (Table 2); in experiment [1]) were 7.66 and 6.56, respectively.
In the case of `COc1ncc(-c2ccc3ncnc(N4CCN(C(=O)/C=C/CN(C)C)CC4)c3c2)cc1NS(=O)(=O)c1ccc(F)cc1F` [Example 11, (E)-N-(5-(4-(4-(4-(dimethylamino)but-2-enoyl)piperazin-1-yl)quinazolin-6-yl)-2-methoxypyridin-3-yl)-2,4-difluorobenzenesulfonamide], the figures for the pIC50 (at PI3Kα (Table 1); in experiment [1]) were 9.19 and 6.99, respectively.
